PubChem BioAssay (NCI)
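Dose response: 5 concentrations. Exposure: 48 h. Format: 96-well plates. Endpoint: linear interpolation; highest concentration if not reached. At the GI50, growth is halved. At the TGI there is no net growth.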

Tests used:
Experiment in all cases: NCI tumour cell line growth inhibition, 48 h
[1] = test system: T-47D breast
[2] = test system: MCF7 breast
[3] = test system: MDA-MB-231 breast
[4] = test system: DU-145 prostate
[5] = test system: MDA-MB-435
[6] = test system: M19-MEL melanoma
[7] = test system: KM20L2 colon
[8] = test system: DLD-1 colon

| Compound | GI50 [1] [µM] | TGI [1] [µM] | GI50 [2] [µM] | TGI [2] [µM] | GI50 [3] [µM] | TGI [3] [µM] | GI50 [4] [µM] | TGI [4] [µM] | GI50 [5] [µM] | TGI [5] [µM] | TGI [6] [µM] | TGI [7] [µM] | TGI [8] [µM] |
| --- | --- | --- | --- | --- | --- | --- | --- | --- | --- | --- | --- | --- | --- |
| COc1cc([C@@H]2c3cc4c(cc3[C@H](SC(=N)N)[C@H]3COC(=O)[C@H]23)OCO4)cc(OC)c1OC | 66.7 | > 100 | 0.0586 | > 100 | 0.388 | > 100 |  |  |  |  |  |  |  |
| Nc1nc(Cl)c2ncn(Cc3ccc(C45CC6CC(CC(C6)C4)C5)c(OCc4cc(F)c(F)cc4F)c3)c2n1 | 6.75 | 44.8 | 3.12 | 16.3 | 2.58 | 9.81 | 4.08 | 15.7 | 2.98 | 17.6 |  |  |  |
| CN(C)CCCOc1ccc(NC2=C(Cl)C(=O)C(Nc3ccc(OCCCN(C)C)cc3)=C(Cl)C2=O)cc1 | 1.96 | 4.96 | 0.15 | 0.376 | 0.656 | 1.49 | 0.563 | 1.13 | 0.501 | 1.05 |  |  |  |
| CC(=O)Nc1cccc(C#Cc2cncnc2Nc2ccc(OCc3cccc(F)c3)c(Cl)c2)c1 | 3.7 | > 25 | 8.33 | > 25 | 15.6 | > 25 | 10 | > 25 | 8.14 | > 25 |  |  |  |
| C/C(=C/CCC(C)[C@@H]1CC[C@]2(C)C3=C(CC[C@@]12C)[C@@]1(C)CCC(=O)C(C)(C)[C@@H]1CC3)C(=O)O (some centres not stated) | 1.14 | 3.08 | 1.02 | 2.87 | 1.53 | 3.15 | 1.2 | 2.56 | 1.25 | 2.74 |  |  |  |
| C#COc1cccc(Nc2ncnc3cc(NC(=O)[C@@H](C)Cl)ccc23)c1 | 22.5 | > 62.5 | 18.8 | > 62.5 | 17.2 | > 62.5 | 16.2 | > 62.5 | 1.65 | 4.66 |  |  |  |
| CCc1ccc(Oc2c(-c3ccc(OCc4ccc(Cl)cc4)cc3O)nn(C)c2C(F)(F)F)cc1 | 0.248 | 0.936 | 0.339 | 1.9 | 1.19 | 2.85 | 0.545 | 2.27 | 1.06 | 2.25 |  |  |  |
| CCOC(=O)C[C@@]12CCCN[C@]1(C)CCc1ccccc12 |  |  |  |  |  |  |  |  |  |  | > 100 | > 100 | > 100 |
| COc1ccc(-c2cnc(-c3ccncc3-c3cccc(OC)c3)o2)cc1 | 2.58 | 35.1 | 0.113 | 12.2 | 0.0591 | 19.3 | 0.0408 | 12.9 |  |  |  |  |  |
| OCCNc1nc2ccccc2c2[nH]c3ccccc3c12 | 0.366 | 2.29 | 0.355 | 2 | 0.611 | 3.63 | 0.659 | 12.5 | 0.528 | 1.81 |  |  |  |
| Oc1cn(-c2ccc(Cl)cc2)nc1-c1n[nH]c(=S)n1-c1ccc(F)cc1 | > 100 | > 100 | 24.8 | > 100 | 10.2 | 60.1 | 22 | > 100 | 4.93 | > 100 |  |  |  |
| Nc1c(C(=O)Nc2ccccc2)sc2nc3c(cc12)C(=O)CCC3 | 1.46 | > 100 | 0.366 | > 100 | 2.32 | > 100 | 0.328 | 19.9 | 0.139 | > 100 |  |  |  |
| Cc1ccc(C(=O)Nc2ccc(Oc3cc4cnn(C)c4cc3-c3cn[nH]c3)c(F)c2)c(=O)n1-c1ccc(F)cc1 | 7.28 | > 78.8 | 3.2 | > 100 | 10.2 | > 78.1 | > 50 | > 100 | 3.23 | > 100 |  |  |  |
| CN(C)CCNC(=O)Nc1ccc(N(C)c2ccnc(Nc3ccc(CS(C)(=O)=O)cc3)n2)cc1 | > 25 | > 25 | > 25 | > 25 | > 25 | > 25 | > 25 | > 25 | > 25 | > 25 |  |  |  |
| CCN1C(=O)N(CC)C2C1NC(=S)N2/N=C/C=C/c1ccccc1 (configuration not stated) | 21.5 | > 100 | 0.0418 | > 100 | 0.376 | > 28.1 | 0.377 | > 100 | 0.0253 | 0.0664 |  |  |  |
| NC(=O)c1nc(-c2c(F)cccc2Cl)oc1Nc1ccc(C(=O)N2CCOCC2)cc1 | 3.46 | 62.7 | 0.596 | > 100 | 1.86 | > 100 | 11.9 | > 100 | 2.03 | > 100 |  |  |  |
| CCOC(=O)c1cn(C)c2c(OC)c3ccccc3c(OC)c2c1=O | 12.4 | 42.9 | 22.9 | 47.8 | 32.6 | > 100 | 63 | > 100 | 15.9 | 30 |  |  |  |
| COC(=O)[C@]12CC[C@@H](C)[C@H](C)[C@@H]1C1=CC[C@@H]3[C@@]4(C)C(C=O)=C[C@@](C)(COS(C)(=O)=O)C4=CC[C@@]3(C)[C@]1(C)CC2 | 0.158 | 0.47 | 0.265 | 1.37 | 0.232 | 0.578 | 0.317 | 1.06 | 0.177 | 0.364 |  |  |  |
| N#CN1CC[C@H](C(=O)Nc2ncc(-c3ccccc3)s2)C1 | 0.483 | 3.35 | 0.19 | 1.32 | 0.41 | 4.65 | 0.814 | 2.04 | 0.273 | 1.73 |  |  |  |
